Test results published in patent US20060194853A1, “Alkyl benzamides” (priority 2004, published 2006).

What was measured:
Format in all cases: cell-based
[1] = system: Giardia intestinalis JKH-1; assay: in vitro growth inhibition of Giardia intestinalis; conditions: for IC50: Giardia duodenalis, in vitro, concentration required to inhibit 50% of the growth of the organisms; for effective against G. intestinalis: result in words
[2] = system: Trichomonas vaginalis UCH-1; assay: in vitro growth inhibition of Trichomonas vaginalis; conditions: for IC50: in vitro, concentration required to inhibit 50% of the growth of the organisms; for effective against T. vaginalis: result in words
Helicobacter pylori = assay: activity against Helicobacter pylori; conditions: result in words
Campylobacter jejuni = assay: activity against Campylobacter jejuni; conditions: result in words
Influenza A = assay: activity against Influenza A; conditions: result in words
Influenza B = assay: activity against Influenza B; conditions: result in words
Herpes Varicella A = assay: activity against Herpes Varicella (VZV); conditions: result in words
P. falciparum = assay: activity against P. falciparum; conditions: result in words

| Structure (SMILES) | IC50 [1] [nM] | IC50 ([2]; Trichomonas vaginalis, UCH1) [nM] | effective against G. intestinalis [1] | effective against T. vaginalis [2] | also measured |
| --- | --- | --- | --- | --- | --- |
| CC(=O)Oc1ccccc1C(=O)Nc1ncc([N+](=O)[O-])s1 [Compound B, 2-acetyloxy-N-(5-nitro-2-thiazolyl)benzamide, reference compound] | 12500 | 605 |  |  |  |
| CC(=O)Oc1c(C)cccc1C(=O)Nc1ncc([N+](=O)[O-])s1 [Compound D, 2-acetyloxy-3-methyl-N-(5-nitro-2-thiazolyl) benzamide] | 560 | 8040 | effective | effective | potency against Giardia intestinalis compared to nitazoxanide ([1]; comparison in words, from TABLE I): significantly more potent than nitazoxanide; effective against H. Pylori (Helicobacter pylori): effective; effective against C. jejuni (Campylobacter jejuni): effective; effective against Influenza A (Influenza A): effective; effective against Influenza B (Influenza B): effective; effective against Herpes VZV (Herpes Varicella A): effective; effective against P. falciparum (P. falciparum): effective |
| CC(=O)Oc1cc(C)ccc1C(=O)Nc1ncc([N+](=O)[O-])s1 [Compound F, 2-acetyloxy-4-methyl-N-(5-nitro-2-thiazolyl) benzamide] |  |  | effective | effective |  |
| O=C(Nc1ncc([N+](=O)[O-])s1)c1ccccc1O [Compound A, 2-hydroxy-N-(5-nitro-2-thiazolyl) benzamide, reference compound] |  |  |  |  | IC50 [2]: 1520 nM |
| CC(=O)Oc1ccc(C)cc1C(=O)Nc1ncc([N+](=O)[O-])s1 [Compound H, 2-acetyloxy-5-methyl-N-(5-nitro-2-thiazolyl) benzamide] |  |  | effective | effective |  |
